Test results published in patent US20240417408A1, “SMALL MOLECULE INHIBITORS OF KRAS G12C MUTANT” (MERCK SHARP & DOHME CORP., priority 2021, published 2024).

Columns and labels:
[1] = target: T1, interaction between KRAS G12C and cRAF-RBD (Homo sapiens, UniProt P01116, G12C); assay: Test Example 2: inhibitory activity on interaction between KRAS G12C and cRAF (Alpha technology); assay type: binding; conditions: GMPPNP-bound KRAS G12C incubated with compound at 25° C. for 1 hour, then cRAF-RBD
T1 construct: TEV protease site (ENLYFQG); made in house; host or cells: E. coli
T1 sequence (P01116 with tags, fused parts or gaps isoform P01116-2 G12C): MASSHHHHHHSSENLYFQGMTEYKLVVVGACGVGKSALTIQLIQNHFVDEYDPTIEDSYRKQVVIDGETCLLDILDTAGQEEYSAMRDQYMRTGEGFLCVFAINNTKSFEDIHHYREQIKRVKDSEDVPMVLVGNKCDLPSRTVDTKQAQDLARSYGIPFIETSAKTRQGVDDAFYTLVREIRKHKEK
Experimental: Test Example 2: Evaluation of Inhibitory Activity of Compounds on Interaction Between KRAS G12C and cRAF (In Vitro)
Interaction between recombinant KRAS G12C mutant protein (SEQ ID NO: 1) and cRAF RAS-binding domain (cRAF-RBD, amino acids 50-132, Jena Biosciences GmbH) was measured using Alpha technology (PerkinElmer Inc.).
Recombinant KRAS G12C protein with an N-terminal His-tag was expressed in E. coli and purified by affinity chromatography. To prepare GTP-bound form and GDP-bound form of KRAS G12C protein, 50 μM KRAS G12C protein was incubated with 1 mM GMPPNP (Jena Bioscience GmbH) and 1 mM GDP, respectively, in a loading buffer (20 mM Tris-HCl (pH 7.5), 50 mM NaCl, 1 mM DTT and 2.5 mM EDTA) for 1 hour on ice. After the incubation, MgCl2 was added to a final concentration of 10 mM, followed by incubation at room temperature for 30 minutes. The mixture was allowed to pass through a NAP-5 column to remove free nucleotides and purified, and the resultant nucleotide-bound KRAS G12C protein was used for compound evaluation.
For the measurement of the inhibitory activity of compounds on interaction between KRAS G12C and cRAF-RBD, GMPPNP-bound KRAS G12C protein was incubated with various concentrations of compound in a reaction buffer (20 mM Tris-HCl (pH 7.5), 100 mM NaCl, 1 mM MgCl2, 1 mM TCEP, 0.1% Tween 20) at 25° C. for 1 hour. After the incubation, recombinant cRAF-RBD and Alpha detection reagents were added and incubated at room temperature for 1.5 hours for binding. Interaction of KRAS G12C and cRAF-RBD was monitored by measuring Alpha signal. Inhibition % was calculated using the signal from the reaction without test compound (DMSO control) as 0% inhibition and the signal from the reaction using GDP-bound KRAS G12C in place of GMPPNP-bound KRAS G12C as 100% inhibition. IC50 values were calculated from dose titration curve using curve fitting by XLfit software (IDBS).

[2] = target: T2, Recombinant KRAS G12C mutant protein (amino acids 1-169, SEQ ID NO: 1) (Homo sapiens, UniProt P01116, G12C); assay: Test Example 1: inhibitory activity on KRAS G12C nucleotide (GDP-GTP) exchange reaction in vitro; assay type: biochemical; conditions: BODIPY FL GDP-bound KRAS G12C incubated with compound at 25° C. for 1 hour, then SOS1 and GMPPNP, read-out: GNE IC50
T2 construct: His6 (N); TEV protease site (ENLYFQG; named from own knowledge) (N); made in house; host or cells: E. coli
T2 sequence (P01116 with tags, fused parts or gaps isoform P01116-2 G12C): as above
Experimental: Test Example 1: Evaluation of inhibitory activity of compounds on KRAS G12C nucleotide (GDP-GTP) exchange reaction in vitro
Recombinant KRAS G12C mutant protein (amino acids 1-169, SEQ ID NO: 1) and cleaved recombinant SOS1 (amino acids 564-1049, SEQ ID NO:2) proteins were expressed in E. coli and purified by affinity chromatography.
To prepare BODIPY FL GDP-bound KRAS G12C protein, 50 μM KRAS G12C protein was incubated with 0.5 mM BODIPY FL GDP in a loading buffer (20 mM Tris-HCl (pH 7.5), 50 mM NaCl, 1 mM DTT and 2.5 mM EDTA) for 1 hour on ice. After the incubation, MgCl2 was added to a final concentration of 10 mM, followed by incubation at room temperature for 30 minutes. The mixture was allowed to pass through a NAP-5 column to remove free nucleotides and purified BODIPY FL GDP-bound KRAS G12C protein was used for compound evaluation.
For the measurement of the inhibitory activity of compounds on GDP-GTP exchange rate of recombinant KRAS G12C, BODIPY FL GDP-bound KRAS G12C protein was incubated with various concentrations of compound in a reaction buffer (20 mM Tris-HCl (pH 7.5), 100 mM NaCl, 1 mM MgCl2, 2 mM DTT, 0.1% Tween 20) at 25° C. for 1 hour. After the incubation, recombinant SOS1 and Guanosine-5′-[(β,γ)-imido]triphosphate, Tetralithium salt (GMPPNP) (Jena Bioscience GmbH) were added and incubated at room temperature for 30 minutes to proceed SOS1-dependent GDP-GTP exchange reaction on KRAS G12C. Replacement of BODIPY FL GDP by GMPPNP was measured by calculating the ratio of fluorescence intensities of BODIPY FL before and after the exchange reaction. Inhibition % was calculated by setting the fluorescence ratio from the reaction without test compound (DMSO control) and the fluorescence ratio from the reaction without SOS1 and GMPPNP as 0% and 100% inhibition, respectively. IC50 values were calculated from dose titration curve using curve fitting by XLfit software (IDBS).

MIA PaCa-2 cells = assay: Test Example 3: growth inhibition activity on KRAS-G12C mutant cell line (MIA PaCa-2); assay type: cell-based; conditions: Homo sapiens, 72 h, MIA PaCa-2, 3-day culture, CellTiter-Glo 3D, read-out: CTX MiaPaCa IC50
Experimental: Test Example 3: Assay of Growth Inhibition Activity on KRAS-G12C Mutant Cell Line (MIA PaCa-2) (In Vitro)
MIA PaCa-2 cells (provided by Sumitomo Dainippon Pharma Co., Ltd.), which are a KRAS-G12C mutant human pancreas cancer cell line, were suspended in a 10% fetal bovine serum-containing RPMI1640 medium (manufactured by Fujifilm Wako Pure Chemical Corporation.). The cell suspension was seeded into each well of a 384-well U bottom microplate and cultured in an incubator containing 5% CO2 gas at 37° C. for 1 day. The compounds obtained in the Examples section were used as test compounds and were dissolved in DMSO, respectively, and each test compound was diluted with DMSO to give a concentration 500 times the final concentration. The resultant solution of the test compound in DMSO was diluted with the medium used for suspending cells and added to each well of the cell-culture plate to give a DMSO final concentration of 0.2%, followed by culture in an incubator containing 5% CO2 gas at 37° C. for another 3 days. The cell count after 3-day culture in the presence of the test compound was measured using CellTiter-Glo 3D Reagent (manufactured by Promega Corporation). To all cells were added with CellTiter-Glo 3D Reagent and mixed for 10 minutes. 30 minutes after mixing, luminescence was measured by a plate reader. The growth inhibition rate was calculated from the following equation, and the concentration of the test compound at which 50% inhibition was achieved (IC50 (nM)) was determined.
[formula] • T: the emission intensity in a well into which a test compound was added. • C: the emission intensity in a well into which a test compound was not added.

Compound	IC50 [1] [µM]	IC50 [2] [µM]	IC50 (MIA PaCa-2 cells) [µM]
CO[C@H]1CC[C@H](NC/C=C/C(=O)N2CCN(c3nc(OC[C@@H]4CCCN4C)nc4c3CO[C@H](c3cc(O)cc5cccc(Br)c35)C4)C[C@@H]2CC#N)CC1 [Example 11, 2-((S)-4-((S)-7-(8-bromo-3-hydroxynaphthalen-1-yl)-2-(((S)-1-methylpyrrolidin-2-yl)methoxy)-7,8-dihydro-5H-pyrano[4,3-d]pyrimidin-4-yl)-1-((E)-4-(((1r,4S)-4-methoxycyclohexyl)amino)-but-2-enoyl)piperazin-2-yl)-acetonitrile]	0.182	0.00081	0.0217
C#Cc1cccc2cccc([C@@H]3Cc4nc(OCC5(CN6CCOCC6)CC5)nc(N5CCN(C(=O)/C=C/CN6CCC(OC)CC6)[C@@H](CC#N)C5)c4CO3)c12 [Example 12, 2-((S)-4-((S)-7-(8-ethynyl-naphthalen-1-yl)-2-((1-(morpholinomethyl)cyclo-propyl)methoxy)-7,8-dihydro-5H-pyrano[4,3-d]pyrimidin-4-yl)-1-((E)-4-(4-methoxypiperidin-1-yl)-but-2-enoyl)piperazin-2-yl)-acetonitrile]	0.309	0.0067	0.17
C#Cc1cccc2cc(O)cc([C@@H]3Cc4nc(OCC5(CN(C)C)CC5)nc(N5CCN(C(=O)/C=C/CN6CCC(OC)CC6)[C@@H](CC#N)C5)c4CO3)c12 [Example 13, 2-((S)-4-((S)-2-((1-((dimeth-ylamino)methyl)cycloprop-yl)methoxy)-7-(8-ethynyl-3-hydroxynaphthalen-1-yl)-7,8-dihydro-5H-pyrano[4,3-d]pyrimidin-4-yl)-1-((E)-4-(4-methoxypiperidin-1-yl)-but-2-enoyl)piperazin-2-yl)-acetonitrile]	0.0513	0.00091	0.00621
C#Cc1cccc2cc(O)cc([C@@H]3Cc4nc(OC[C@@H]5CCCN5C)nc(N5C[C@H](CC#N)N(C(=O)/C=C/CN6CCC(OC)CC6)C[C@H]5C)c4CO3)c12 [Example 14, 2-((2S,5R)-4-((S)-7-(8-ethynyl-3-hydroxynaph-thalen-1-yl)-2-(((S)-1-meth-ylpyrrolidin-2-yl)methoxy)-7,8-dihydro-5H-pyrano[4,3-d]pyrimidin-4-yl)-1-((E)-4-(4-methoxypiperidin-1-yl)-but-2-enoyl)-5-methylpiper-azin-2-yl)acetonitrile]	0.531	0.00082	0.00788
C#Cc1cccc2cc(O)cc([C@@H]3Cc4nc(OC[C@@H]5CCCN5C)nc(N5C[C@H](CC#N)N(C(=O)/C=C/CN6CCC(OC)CC6)C[C@@H]5C)c4CO3)c12 [Example 15, 2-((2S,5S)-4-((S)-7-(8-ethynyl-3-hydroxynaph-thalen-1-yl)-2-(((S)-1-meth-ylpyrrolidin-2-yl)methoxy)-7,8-dihydro-5H-pyrano[4,3-d]pyrimidin-4-yl)-1-((E)-4-(4-methoxypiperidin-1-yl)-but-2-enoyl)-5-methyl-piperazin-2-yl)acetonitrile]	> 6.67	0.103	1.92
C#Cc1cccc2cc(O)cc(C3Cc4nc(OC5CN(S(C)(=O)=O)C5)nc(N5CCN(C(=O)/C=C/CN6CCC(OC)CC6)[C@@H](CC#N)C5)c4CO3)c12 (stereo partly drawn) [Example 16, 2-((2S)-4-(7-(8-ethynyl-3-hydroxynaphthalen-1-yl)-2-((1-(methylsulfonyl)azeti-din-3-yl)oxy)-7,8-dihydro-5H-pyrano[4,3-d]pyrimidin-4-yl)-1-((E)-4-(4-methoxy-piperidin-1-yl)but-2-enoyl)-piperazin-2-yl)acetonitrile]	> 6.67	0.338	> 10
C#Cc1cccc2cc(O)cc([C@@H]3Cc4nc(OCC5(COC)CC5)nc(N5CCN(C(=O)/C=C/CN6CCC(OC)CC6)[C@@H](CC#N)C5)c4CO3)c12 [Example 17, 2-((S)-4-((S)-7-(8-ethynyl-3-hydroxynaphthalen-1-yl)-2-((1-(methoxymethyl)-cyclopropyl)methoxy)-7,8-dihydro-5H-pyrano[4,3-d]-pyrimidin-4-yl)-1-((E)-4-(4-methoxypiperidin-1-yl)but-2-enoyl)piperazin-2-yl)-acetonitrile]	> 6.67	0.255	0.543
